The values that follow come from US9387209B2, “Histone deacetylases (HDACs) inhibitors” (ANNJI PHARMACEUTICAL CO., LTD., priority 2012, dated 2016).

SMILES strings stand for the structures.

In series [1] the test system is SH-SY5Y cells. As to the kind of experiment: Neurite synaptic uptake activity (FM1-43), SH-SY5Y. It counts as cell-based. To be noted: Homo sapiens, NGF positive control taken as 100%, read-out: uptake of dye FM1-43 EC50. As to the method: (§1) Neurite Synaptic Uptake Activity Analysis.
(§2) The effects of compounds on the neuronal synapse uptake of fluorescent indicator FM1-43 were assayed. The uptake of the dye indicated the synaptic function of the neurites. PC 12 and SH-SY5Y cells were used. Cells in experimental groups were treated with a test compound and FM1-43; Cells in positive control were treated with NGF and FM1-43; Cells in negative control were treated with a vehicle and FM1-43. The fluorescence in the positive control were taken as 100%.

For series [2], the target named is T1, human histone deacetylases (HDAC) 8 (Homo sapiens, UniProt Q9BY41).
T1 sequence (Q9BY41 1-377): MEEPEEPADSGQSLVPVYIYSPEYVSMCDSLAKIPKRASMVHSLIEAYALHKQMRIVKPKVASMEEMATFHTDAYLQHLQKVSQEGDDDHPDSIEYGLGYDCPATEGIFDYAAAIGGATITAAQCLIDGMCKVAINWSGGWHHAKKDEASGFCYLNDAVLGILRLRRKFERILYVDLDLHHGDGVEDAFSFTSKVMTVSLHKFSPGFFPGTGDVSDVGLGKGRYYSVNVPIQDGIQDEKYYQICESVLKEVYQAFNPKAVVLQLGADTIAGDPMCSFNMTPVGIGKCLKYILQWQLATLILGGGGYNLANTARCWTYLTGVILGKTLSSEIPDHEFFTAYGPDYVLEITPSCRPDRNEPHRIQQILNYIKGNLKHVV
As to the kind of experiment: HDAC enzymatic assay, HDAC8. It counts as biochemical. To be noted: HDAC8; read-out: IC50 HDAC8 (grading).

In series [3] the target is T2, zinc-mediated β-amyloid aggregation (Homo sapiens, UniProt P05067). As to the kind of experiment: Anti-amyloid aggregation assay, BCA. It counts as biochemical. The settings on record: detected by BCA. As for the experimental part: (§3) Anti-Amyloid Aggregation Assay.
(§4) The effects of compounds on inhibition of β-amyloid aggregation were assayed. The levels of β-amyloid aggregates were determined by thioflavin S, BCA or CR assays (Tables 1). Thioflavin S, and Congo red are for in vitro staining of aggregated β-amyloid. Bicinchoninic acid (BCA) assay determines the total protein level or concentration.

For series [4], the system named is hippocampus-lesioned mice. As to the kind of experiment: Rotarod test in Alzheimer disease model. The format is in vivo. The settings on record: daily i.p. 10 mg/kg for 30 days, compared to vehicle. The text has this:
To test the effect of the compound in improving the learning ability of the animals in Alzheimer disease model, β-aggregates-induced hippocampal lesions were used to generate learning-impaired mice.

In series [5] the test system is PC 12 cells. As to the kind of experiment: Neurite synaptic uptake activity (FM1-43), PC 12. The format is cell-based. The settings on record: Rattus norvegicus, NGF positive control taken as 100%, read-out: uptake of dye FM1-43 EC50. As for the experimental part:
as §1, §2

For series [6], the target named is T2, zinc-mediated β-amyloid aggregation. Put plainly: Anti-amyloid aggregation assay, CR (Congo red). It counts as biochemical. The settings on record: detected by CR. As to the method: as §3, §4
In series [7] the test system is PC 12 cells. As to the kind of experiment: Neurite outgrowth assay, PC 12. The format is cell-based. The settings on record: Rattus norvegicus.
Series [8] deals with T2, zinc-mediated β-amyloid aggregation. Put plainly: Anti-amyloid aggregation assay, thioflavin S. The format is biochemical. The settings on record: detected by thioflavin S. As to the method:
as §3, §4

The target in series [9] is T3, human histone deacetylases (HDAC) 6 (Homo sapiens, UniProt Q9UBN7).
T3 sequence (Q9UBN7 1-1215): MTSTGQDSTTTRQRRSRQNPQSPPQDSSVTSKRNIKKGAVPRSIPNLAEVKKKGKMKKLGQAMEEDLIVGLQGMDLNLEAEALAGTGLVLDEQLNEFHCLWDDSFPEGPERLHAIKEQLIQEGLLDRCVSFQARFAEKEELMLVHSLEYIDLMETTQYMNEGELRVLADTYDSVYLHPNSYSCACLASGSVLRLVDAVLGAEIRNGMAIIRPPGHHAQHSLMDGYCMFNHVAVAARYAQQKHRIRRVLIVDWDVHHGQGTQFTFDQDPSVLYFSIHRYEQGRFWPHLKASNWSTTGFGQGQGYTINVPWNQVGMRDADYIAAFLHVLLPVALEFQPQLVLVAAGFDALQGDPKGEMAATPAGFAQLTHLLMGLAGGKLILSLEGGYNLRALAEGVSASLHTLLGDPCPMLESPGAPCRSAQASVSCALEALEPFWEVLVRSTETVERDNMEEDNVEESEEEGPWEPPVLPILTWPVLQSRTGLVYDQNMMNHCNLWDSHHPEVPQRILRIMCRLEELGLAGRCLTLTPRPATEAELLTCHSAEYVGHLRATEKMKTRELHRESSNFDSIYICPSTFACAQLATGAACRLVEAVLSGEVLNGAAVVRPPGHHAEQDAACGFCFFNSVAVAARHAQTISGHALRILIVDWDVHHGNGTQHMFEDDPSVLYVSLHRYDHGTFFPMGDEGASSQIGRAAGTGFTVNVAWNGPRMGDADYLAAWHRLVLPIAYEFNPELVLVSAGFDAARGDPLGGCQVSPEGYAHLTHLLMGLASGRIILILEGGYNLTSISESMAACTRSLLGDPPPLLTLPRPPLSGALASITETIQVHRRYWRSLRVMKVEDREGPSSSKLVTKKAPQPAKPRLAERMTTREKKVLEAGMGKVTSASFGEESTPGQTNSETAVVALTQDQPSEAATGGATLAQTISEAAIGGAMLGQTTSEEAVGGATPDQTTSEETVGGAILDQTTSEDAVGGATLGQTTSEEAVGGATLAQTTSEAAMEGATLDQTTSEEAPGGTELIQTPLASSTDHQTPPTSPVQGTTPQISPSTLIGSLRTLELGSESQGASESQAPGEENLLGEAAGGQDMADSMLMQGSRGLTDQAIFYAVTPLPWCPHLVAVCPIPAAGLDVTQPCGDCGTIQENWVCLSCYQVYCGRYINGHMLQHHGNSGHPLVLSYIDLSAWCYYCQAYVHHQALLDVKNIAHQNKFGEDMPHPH
As to the kind of experiment: HDAC enzymatic assay, HDAC6. It counts as biochemical. To be noted: for IC50: HDAC6, read-out: IC50 HDAC6 (grading).

Series [10] has as its target human histone deacetylases (HDAC) 1 (Homo sapiens, UniProt Q13547). Put plainly: HDAC enzymatic assay, HDAC1. The format is biochemical. To be noted: read-out: IC50 HDAC1 (grading).
Series [11] deals with SH-SY5Y cells. Put plainly: Neurite outgrowth assay, SH-SY5Y. To be noted: Homo sapiens. The format is cell-based.
A short description of series [12]: MTT or SRB assay for cytotoxicity, HepG2. It counts as cell-based. To be noted: human, HepG2 cells, read-out: cytotoxicity IC50 (grading) HepG2. As for the experimental part: (§5) MTT or SRB Assays for Cytotoxicities of HDAC Inhibitors.
(§6) These compounds were assayed for cytotoxicities to the following cells: A549 cells (adenocarcinomic human alveolar basal epithelial cells), HCT-116 cells (human colon carcinoma cells). PANC-1 cells (human pancreatic carcinoma, epithelial-like cell line) and HepG2 cells (human liver hepatocellular carcinoma cell line), neuronal cells PC12 (rat pheochromocytoma cell line) and SH-SY5Y (human neuroblastoma cell line). MTT (3-[4,5-dimethylthiazol-2-yl]2,5-diphenyl-tetrazolium bromide) reduction was collaborated by using trypan blue exclusion assay.

Series [13] can be described thus: MTT or SRB assay for cytotoxicity, HCT116. It counts as cell-based. To be noted: human, HCT-116 cells, read-out: cytotoxicity IC50 (grading) HCT116. As to the method: as §5, §6
(In general: Tetrazolium assays rely on reduction of a dye to a coloured formazan, in cell work by metabolically active cells.)

Series [14] is described as follows: MTT or SRB assay for cytotoxicity, A549. The settings on record: human, A549 cells, read-out: cytotoxicity IC50 (grading) A549. It counts as cell-based. As to the method:
as §5, §6

A short description of series [15]: MTT or SRB assay for cytotoxicity, PANC1. It counts as cell-based. To be noted: human, PANC-1 cells, read-out: cytotoxicity IC50 (grading) PANC1. As for the experimental part: as §5, §6

T2 sequence (P05067 672-711 limits assumed): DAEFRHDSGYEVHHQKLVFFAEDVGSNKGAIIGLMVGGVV
Sequence of human histone deacetylases (HDAC) 1 (Q13547 whole entry): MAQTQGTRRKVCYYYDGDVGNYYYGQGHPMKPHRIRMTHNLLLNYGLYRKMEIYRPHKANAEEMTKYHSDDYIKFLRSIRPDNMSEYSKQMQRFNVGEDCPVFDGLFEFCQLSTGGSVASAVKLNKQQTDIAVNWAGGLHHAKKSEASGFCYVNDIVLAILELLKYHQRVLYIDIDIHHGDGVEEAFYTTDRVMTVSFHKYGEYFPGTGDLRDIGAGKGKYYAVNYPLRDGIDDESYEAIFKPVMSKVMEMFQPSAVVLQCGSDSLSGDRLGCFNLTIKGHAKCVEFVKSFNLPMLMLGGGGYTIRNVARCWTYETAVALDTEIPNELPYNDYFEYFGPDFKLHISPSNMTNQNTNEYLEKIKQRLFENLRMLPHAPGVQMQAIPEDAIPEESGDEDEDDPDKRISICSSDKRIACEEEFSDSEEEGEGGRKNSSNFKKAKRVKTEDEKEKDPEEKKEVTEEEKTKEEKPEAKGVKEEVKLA

As usually defined, the EC50 is the concentration at which the effect is half-maximal. By IC50 is commonly meant the concentration at which inhibition is half-maximal. As for `Cc1nc2cc(/C=C/C(=O)NO)ccc2c(=O)n1CCc1ccccc1` [Compound 1f, (2E)-3-(3,4-dihydro-2-methyl-4-oxo-3-phenethylquinazolin-7-yl)-N-hydroxyacrylamide], the EC50 in the series on SH-SY5Y cells [1] was 6.77 ± 0.96 µM; with PC 12 cells [5], 6.49 ± 0.78 µM; in the series with PC 12 cells [7], 6.49 ± 0.78 µM; with SH-SY5Y cells [11], 6.77 ± 0.96 µM. Further, the IC50 in series [2] was 1 to 10 µM; in series [3], 11.7 µM; in series [6], 43.1 µM; in series [8], 9.5 µM; in series [9], under 0.1 µM; in [10], 1 to 10 µM. In [4], the “learning performance in rotarod test” value is on record as “improved learning performance”. Moreover, in [9] (HDAC6 versus other HDACs), the “selective inhibitions on HDAC6” value is given as “selective inhibitions on HDAC6”.
As a reminder, the melting point is the temperature, or range, at which the solid turns liquid. Regarding `Cc1nc2cc(/C=C/C(=O)Nc3ccccc3N)ccc2c(=O)n1CCc1ccccc1` [Compound 6a, (2E)-N-(2-aminophenyl)-3-(3,4-dihydro-2-methyl-4-oxo-3-phenethylquinazolin-7-yl)acrylamide], the melting point was 246 to 248 °C (dec.). Further, the EC50 in the series on SH-SY5Y cells [1] came to 8.81 ± 1.04 µM. Besides, in [12], the IC50 lay within 0.1 to 1 µM. Also, the IC50 in series [13] is at least 10 µM. For the same compound, in series [2], the concentration for half-maximal inhibition (IC50) is over 10 µM. The IC50 in series [14] was at least 10 µM. In [3], this compound showed an IC50 of 13.8 µM. Also, the EC50 in the series with PC 12 cells [5] came to 6.59 ± 1.06 µM. In series [6], this compound registered an IC50 of 30.9 µM. In the series with PC 12 cells [7], this compound registered an EC50 of 6.59 ± 1.06 µM. The compound also displayed an IC50 in [8] of 10.7 µM. The IC50 in series [9] is over 10 µM. In series [10], the IC50 is 1 to 10 µM. The IC50 in series [15] fell in the range of 1 to 10 µM. In the series with SH-SY5Y cells [11], this compound registered a concentration giving a half-maximal response (EC50) of 8.81 ± 1.04 µM.
